A value given as a limit tells only on which side of the number the result lay.

In turn, `CCCc1nc(N)nc(N2CCOCC2)n1` came in with a melting point of 127 to 128 °C.
`Oc1c(C2CCCC2)cc(CSCc2cc(C3CCCC3)c(O)c(C3CCCC3)c2)cc1C1CCCC1` had a melting point of 149 to 150 °C.
In turn, `CCCc1[nH]c(=O)oc1-c1ccnc(-c2ccccc2)c1` had a melting point of 202 to 204 °C.
Next, `N#CCCC=C(c1ccccc1)c1ccccc1`: 64 to 66 °C; `CCOC(=O)CCCCn1c(C(=O)OCC)cc2c(Cl)cc(O)cc21`: 74 to 76 °C.
With `COc1cc2c(cc1Nc1ncc(Cl)c(N[C@@H]3CCCC[C@H]3NS(C)(=O)=O)n1)CCN(CCNC(C)=O)CC2` the figure was 108 to 118 °C.
With `CCc1cc2cc(O)c(Cl)c(Cl)c2s1` the figure was 69 to 70 °C; with `CN1Cc2c(C#CC(C)(C)C)ncn2-c2cccc(Cl)c2C1=O`, 126 to 128 °C.
As for `N#CC1=C(C2CC2)Nc2n[nH]cc2C1c1cccc(C#N)c1Br` (stereo not given), the melting point was more than 250 °C.
Next, `N#Cc1ccc2[nH]cc(CCCCN3CCN(c4ccc5oc(C(=O)NO)cc5c4)CC3)c2c1`: 198 to 199 °C; `O=c1ccc(-c2ccc(Oc3ccc4c(c3)CCN(C3CCC3)CC4)nc2)n[nH]1`: 215 to 220 °C.
`CCCCCCNC(=O)CS(=O)(=O)Nc1c(C(C)C)cccc1C(C)C` came in with a melting point of 125 to 127 °C.
Consider `O=C(O)c1cc2c(F)ccc(Cl)c2s1`, for which the melting point lay in the range of 248 to 249 °C.
Next, `C[C@@H](C(N)=O)c1ccc(NS(=O)(=O)c2ccc(Cl)cc2)cc1`: 150 to 153 °C; `CC(C)(C)c1cc(C(=O)C2CC2)cc(C(C)(C)C)c1O`: 140 to 142 °C.
Next, `COc1cc(Cl)ccc1NC(=O)C(C)(C)C`: 66 to 69 °C; `CCc1c(OC)nc2nc(-c3nc(C)no3)cn2c1C`: 204 to 205 °C.
Next, `Fc1ccc(C(=C(c2ccccc2)C(F)(F)F)c2ccc(OCCBr)cc2)cc1`: 142 to 144 °C; `CN(CCOc1ccc(CCOCCc2ncno2)cc1)c1nc2ccccc2o1`: 89 to 90 °C.
In turn, `Cc1cc(C#N)cc(C(=O)NC(C)C)c1NC(=O)c1cc(Br)nn1-c1ccccc1Cl` returned a melting point of 145 to 149 °C.
Next, `CCOC(=O)c1cccc(NC(=O)N2CCn3c(c(C(N)=O)c(Cl)c3-c3ccccc3)C2)c1`: 126 to 128 °C; `CNC(=O)N(O)C(C)c1ccc(F)cc1F` (stereo not given): 125 to 134 °C.
Compound `c1ccc(CN2CC3Cc4ccccc4OC3C2)cc1` (stereo not given) returned a melting point of 68 to 70 °C.
In turn, `CCC1(Cl)C(=O)c2c(cc(OCC(=O)O)c(Cl)c2Cl)C1c1ccccc1` (stereo not given) displayed a melting point of 190 to 192 °C.
Next, `CCCCN1CCCN(c2ccccc2)c2cc(Cl)ccc21`: 159 to 161 °C; `CCOC(=O)Cc1nc(-c2ccccc2)oc1-c1cccs1`: 82 to 83 °C; `CCC(C)(C)N=C(Nc1cncnc1)c1ccc(Cl)cc1Cl`: 136 to 137 °C.
For the compound `O=S(Cc1cccc(C(F)(F)F)c1)c1nc2cnccc2[nH]1` (stereo not given), the melting point is 194 to 197 °C.
For `CC(=NOCc1ccccc1)c1cccc(S(N)(=O)=O)c1`, the melting point fell in the range of 136 to 139 °C.
Next, `FC(F)(F)c1ccc(Cl)cn1`: 36 to 37 °C; `CSCCNC(=O)c1sc(-c2cccnc2)nc1Cl`: 97 to 98 °C; `CCc1cc(-c2ccc(Cl)cc2)nc2c(I)cnn12`: 150 to 152 °C.
With `CCCC1(C)OC(=O)C(OC(C)C)=C1c1ccc(S(C)(=O)=O)cc1` (stereo not given) the figure was 95 to 96 °C.
With `O=C1c2ccccc2-c2[nH]c(=O)cnc21` the figure was more than 300 °C.
`COc1cc2c(=O)c(C#N)c[nH]c2cc1[N+](=O)[O-]` came in with a melting point of 305 to 309 °C.
In turn, `C=C1N(CCCC)C(=O)OC12CCN(CCC=C(c1ccc(F)cc1)c1ccc(F)cc1)CC2` registered a melting point of 92 to 93 °C.
Next, `CC(=O)N(C)c1cccc(-c2ccc3nncn3n2)c1`: 166 to 169 °C; `COc1ccc(C(=O)Nc2ccccc2)cc1NCc1ccoc1`: 188 to 190 °C.
Next, `COc1cccc(NC(=O)C(F)(F)F)c1`: 115 °C; `CCOC(=O)C1=C(C)NN=C(C(=O)OC)C1c1cccc(Cl)c1` (stereo not given): 139 °C.
For the compound `COc1c(F)cc(CCC(=O)O)cc1F`, the melting point is 72 to 73 °C.
With `COc1cc(-n2c(OC)nc(C(F)(F)C(F)(F)F)cc2=O)c(F)cc1Cl` the figure was 123 to 125 °C; with `Cc1nc(-c2ccccc2)nc(-c2ccncc2)c1C`, 152 to 153 °C; with `CS(=O)(=O)Nc1cc([C@@H](O)CNC2CCN(c3ccc(CCC(=O)O)cc3)CC2)ccc1O`, 130 to 133 °C.
As for `CC(c1ccccc1)C(C(=O)c1ccc(Cl)cc1)n1cncn1` (stereo not given), the melting point was in the range of 163 to 165 °C.
With `CC(Oc1cc2sc(NC(=O)NCCN3CCOCC3)nc2cc1F)c1c(Cl)cccc1Cl` (stereo not given) the figure was 200 to 205 °C; with `CNCc1cc(=O)oc2cc(OC)ccc12`, 109 to 110 °C; with `CCOC(=O)c1ncc2[nH]c3ccc(C4CCCC(=O)C4)cc3c2c1C` (stereo not given), 182 to 189 °C.
With `CC1(C)CCC(C)(C)C2=C1CC(C(=O)O)C2` the figure was 125 to 129 °C.
With `Cc1ccc(S(=O)(=O)N2CCOC(C)(C)C2)cc1` the figure was 95 to 97 °C.
As for `CCOC(=O)c1ccc2oc3ncccc3c(=O)c2c1`, the melting point was 131 to 132 °C.
With `CCNC1C(C)CN(c2c(F)cc3c(=O)c(C(=O)O)cn(C4CC4)c3c2OC)CC1C` (stereo not given) the figure was 250 to 252 °C.
Next, `CO[C@@H]1CNCC[C@H]1NC(=O)c1cccc(C(F)(F)F)c1` (relative stereo): 100 °C.
With `CCc1cc2c3c(ccc2[nH]1)OCC(CN1CC=C(c2c[nH]c4ccccc24)CC1)O3` (stereo not given) the figure was 175 to 177 °C.
With `CCCC1=C(C(=O)OCC)C(c2c(F)cccc2F)c2c[nH]nc2N1` (stereo not given), the melting point was found to be 185 °C.
With `CC(=O)Nc1ccc(S(=O)c2ccc(Cl)cc2)cc1` (stereo not given), the melting point is 160 to 162 °C.
With `C=Cc1cc(OC)cc2cc(-c3ccc(OC)cc3)oc12` the figure was 182 to 184 °C; with `C=C(C)C(=O)NOC(=O)C(=C)C`, 55 °C; with `c1ccc(COCCOc2ccc(OCc3ccccc3)cc2)cc1`, 71 to 73 °C.
With `CCCCCCCCC(C)C(=O)NCl` (stereo not given) the figure was 56 to 57 °C; with `O=C(O)Cn1c(=O)n(S(=O)(=O)c2ccccc2)c(=O)c2ccc(Cl)cc21`, 212 to 214 °C; with `Cc1nn(CCOc2ccc(C=C3SC(=O)NC3=O)cc2)c(=O)c2ccccc12`, 202 °C.
Next, `O=S(=O)(Nc1cccc(CCOCc2csc(-c3ccccc3)n2)c1)C(F)(F)F`: 112 to 113 °C; `CC(=O)NC1CCN(Cc2cnc3cc(NC(=O)c4ccc(-c5ccc(Cl)cc5)cc4)ccc3c2)C1` (stereo not given): more than 285 °C.
Turning to `OC(CCc1ccc2ccccc2c1)c1cnc2sc3c(n12)CCCCC3` (stereo not given), the melting point was in the range of 124 to 127 °C.
Next, `O=C([C@@H](Cc1ccc(Cl)cc1)NC1CCOCC1)N1CCC(Cn2cncn2)(C2CCCCC2)CC1`: 75 °C.
With `CCOc1ccc(C(=O)CCC(=O)Nc2cc(OCc3ccccc3)cc(-c3ccccc3)n2)cc1OCC` the figure was 156 to 157 °C; with `COc1ccc2cnc(Nc3ccccc3)nc2c1C(C)C`, 172 to 173 °C.
With `O=C1CNC(c2ccc(Cl)cc2)=NN1` the figure was more than 260 °C.
With `COc1ccc(CBr)cc1-c1nsc2ccc(-n3c(=O)cc(C(F)(F)F)n(C)c3=O)cc12`, the melting point fell in the range of 158 to 160 °C.
Next, `COc1cccc2c(=O)cc(C=Cc3ccc(C#N)cc3)oc12`: 274 to 275 °C.
With `CON1C(=O)CC12C=CC(=O)C=C2` the figure was 107 to 109 °C; with `Cc1nc2cc3c(cc2c(=O)[nH]1)C(N(C)c1ccc(C(=O)NC(CCc2nnn(CC(=O)O)n2)C(=O)O)c(F)c1)CC3` (mixture of isomers), 196 to 199 °C.
As to `N#CC1(c2ccc(F)cc2)CCC(N2CCC(C(=O)O)(c3ccccc3)CC2)CC1` (stereo not given), the melting point came to 281 °C.
With `COc1cc(F)ccc1-c1ccc(O)c(C(=O)O)c1` the figure was 205 to 207 °C; with `CCC1(c2cccs2)OCC(=O)Nc2ccc(-c3coc(C#N)c3)cc21` (stereo not given), 99 to 100 °C.
Next, `CCC(C(C)C)C1OC1C(C)C1CCC2C3CCC4=CC(=O)CCC4(C)C3CCC12C` (stereo not given): 111 to 112 °C; `CCCNC(=S)NS(=O)(=O)c1cc2c(cc1OC)OC(C)(C)C(NC(=O)c1cc(Cl)ccc1OC)C2` (stereo not given): 210 to 211 °C.
With `O=C(Cc1ccc(Cl)cc1)OC(c1ccccc1)c1ccccc1` the figure was 107 to 108 °C; with `CCN(CC)c1ccc(C(=O)C#Cc2ccncc2)cc1`, 85 to 87 °C.
As for `CNc1nc(-c2cccc(-c3cccnc3)c2)c2cc(OC)c(OC)cc2n1`, the melting point is 186 to 188 °C.
With `CC(C)(C)C(=O)c1ccc(C(=O)O)cc1` the figure was 160 to 162 °C; with `CC1(CBr)SC2C(NC(=O)Cc3ccccc3)C(=O)N2C1C(=O)OCC(Cl)(Cl)Cl` (stereo not given), 90 to 93 °C.
Next, `Cc1cccc(C)c1Oc1nc(Cl)nc(Oc2c(C)cccc2C)n1`: 161 to 162 °C; `Cc1noc2cc(OCCCNCC3CCc4ccc(O)cc4O3)ccc12` (stereo not given): 169 to 170 °C.
With `CC(C)C[C@H](NC(=O)OCc1ccccc1Cl)C(=O)N[C@@H](Cc1ccccc1)C(=O)CSCc1ccco1` the figure was 80 to 85 °C.
Take `O=C(O)[C@@H]1CCCC[C@H]1C(=O)CCS` (relative stereo): the melting point is 71 to 74 °C.
With `Cc1nc(-c2ccccc2)nc(N2c3ccccc3CC2C(=O)N(C)c2ccc(Cl)cc2)c1C` (stereo not given) the figure was 236 to 238 °C; with `C=C(C)Cn1c(=O)n(C)c(=O)c2c(Sc3ccccn3)n(Cc3cccc4ccccc34)nc21`, 118 to 120 °C; with `Cc1nn([N+](=O)[O-])cc1-c1ncc([N+](=O)[O-])n1C`, 148 °C.

As usually defined, the melting point is the temperature of the solid-liquid transition.
